“Also recorded” adds a separate entry of the source.
Tests used:
[1] = test system: quorum-sensing in Staphylococcus aureus; conditions: ref 5 (Igarashi et al.); read-out: quorum-sensing inhibition in Staphylococcus aureus, IC50; cited from earlier work
From the text: (§1) Turnagainolides are a distinctive family of cyclic depsipeptides containing one (E)-3-hydroxy-5-phenylpent-4-enoic acid (Hppa) and four proteinogenic amino acids (Fig. S1). As the first member of this family, compound EGM-556 was discovered from the marine fungus Microascus sp. EGM-556 following the introduction of the histone deacetylase inhibitor suberoylanilide hydroxamic acid to activate a silent biosynthetic gene cluster. However, its stereochemistry was only partially resolved, and no bioactivity was reported ([3]). Subsequently, turnagainolides A and B were identified from Bacillus sp., ...

SHIP1 enzyme = conditions: in vitro; cited from earlier work
From the text: as §1, with “([3]).” for “([3]). Subsequently, turnagainolides A and B were identified from Bacillus sp., ...”

S. aureus biofilm = test: biofilm inhibition experiment (crystal violet); format: cell-based; conditions: overnight 37°C, TSB, OD570
Procedure: S. aureus was cultured overnight in 3 mL of TSB medium. The next morning, the culture was diluted to an OD570 of 0.5 with fresh TSB medium and then further diluted 1,000-fold to achieve a final concentration of 1 × 10^6 CFU/mL. Aliquots of 100 µL of the diluted culture were transferred to individual wells of a 96-well plate. Test compounds were added to the first well of each row at a concentration of 800 µg/mL, followed by twofold serial dilutions across the row. The plate was incubated overnight at 37°C. The medium was subsequently discarded, and the wells were washed three times with PBS (KH2PO4 0.27 g, Na2HPO4 1.42 g, NaCl 8 g, KCl 0.2 g in 1 L deionized water, pH 7.4). Next, 200 µL of methanol was added to each well to fix the biofilm, and the plate was incubated for 15 minutes. The methanol was then removed, and the wells were stained with 0.1% crystal violet for 5 minutes. Excess dye was washed off, and the plate was air-dried. To dissolve the bound stain, 200 µL of glacial acetic acid was added to each well, and the plate was shaken for 20 minutes. The absorbance at OD570 was measured using a microplate reader (Thermo Fisher Scientific, Varioskan LUX).

Candida albicans = conditions: cited from earlier work
From the text: as §1

Escherichia coli = conditions: cited from earlier work
From the text: as §1

S. aureus = conditions: cited from earlier work
From the text: as §1

bacteria = test system: bacteria; design: method as in doi:10.1016/j.cclet.2016.03.018; conditions: compared among congeners; cited from earlier work

| Substance | IC50 [1] [nM] | activation of SHIP1 enzyme (SHIP1 enzyme) | anti-biofilm activity at concentrations above 100 µg/mL (S. aureus biofilm) | further results |
| --- | --- | --- | --- | --- |
| Turnagainolide A [Compound 1] | 800 | only turnagainolide B activates SHIP1 | – | anti-biofilm activity at 200 µg/mL (S. aureus biofilm; 200 µg/mL): no activity; anti-biofilm activity at 400 µg/mL (S. aureus biofilm; 400 µg/mL): weak inhibitory activity |
| Turnagainolide B [Compound 2] | – | activates SHIP1; also recorded: activator of the SHIP1 enzyme | slightly stronger inhibition; also recorded: weak inhibition | – |
| Turnagainolide D [Compound 3] | – | – | slightly stronger inhibition; also recorded: weak inhibition | – |
| arthroamide [reference compound] | 300 | – | – | – |
| turnagainolide C | – | – | – | anti-microbial activity against Candida albicans (Candida albicans): anti-microbial activity; anti-microbial activity against Escherichia coli (Escherichia coli): anti-microbial activity; anti-microbial activity against S. aureus (S. aureus): anti-microbial activity; antibacterial activity (bacteria): only congener that exhibits antibacterial activity |

— publication PMC12094020, “Elucidation of novel turnagainolides and their biosynthetic gene cluster in Bacillus subtilis” (Applied and Environmental Microbiology, 2025)
